Test results as given in the NIST ThermoML archive (doi:10.1016/j.jct.2011.08.015).

Assays:
[1] = molar heat capacity at constant pressure; conditions: 101.33 kPa, Liquid, Small sample (50 mg) DSC
[2] = for surface tension liquid-gas: Drop volume; for electrical conductivity / viscosity / speed of sound / mass density: 101.33 kPa, Liquid; for electrical conductivity: CRISON model GLP31; for viscosity: Capillary tube (Ostwald / Ubbelohde) method; for speed of sound: Sing-around technique in a fixed-path interferometer; for mass density: Vibrating tube method
[3] = refractive index (Na D-line) (dimensionless); conditions: 101.33 kPa, Liquid, Standard Abbe refractometry

CCC[n+]1ccccc1.F[B-](F)(F)F [1-propylpyridinium tetrafluoroborate]
Conditions | electrical conductivity, [2] [S/m] | mass density, [2] [kg/m3] | molar heat capacity at constant pressure, [1] [J/K/mol] | refractive index, [3] | speed of sound, [2] [m/s] | surface tension liquid-gas, [2] [mN/m] | viscosity, [2] [mPa·s]
278.15 K | 0.102 | 1267.63 | 352 | – | 1691.9 | 52.55 | 461.4
280.65 K | 0.123 | 1265.78 | 354 | – | 1685.4 | 52.35 | 379.1
283.15 K | 0.151 | 1263.92 | 355 | 1.44855 | 1678.9 | 52.16 | 314.2
285.65 K | 0.181 | 1262.06 | 356 | 1.44789 | 1672.5 | 51.94 | 262.5
288.15 K | 0.215 | 1260.19 | 357 | 1.44723 | 1666.2 | 51.72 | 220.8
290.65 K | 0.252 | 1258.42 | 359 | 1.44655 | 1660 | 51.53 | 186.9
293.15 K | 0.302 | 1256.64 | 361 | 1.44588 | 1653.9 | 51.29 | 160
295.65 K | 0.352 | 1254.86 | 362 | 1.44522 | 1647.8 | 51.15 | 137.7
298.15 K | 0.401 | 1253.08 | 363 | 1.44455 | 1641.7 | 50.97 | 119.5
300.65 K | 0.456 | 1251.3 | 365 | 1.44389 | 1635.7 | 50.73 | 103.8
303.15 K | 0.516 | 1249.52 | 366 | 1.44322 | 1629.8 | 50.51 | 90.75
305.65 K | 0.581 | 1247.73 | 367 | 1.44256 | 1623.8 | 50.32 | 79.75
308.15 K | 0.649 | 1245.95 | 369 | 1.4419 | 1618 | 50.12 | 70.61
310.65 K | 0.722 | 1244.18 | 370 | 1.44123 | 1612.1 | 49.93 | 62.81
313.15 K | 0.799 | 1242.4 | 372 | 1.44057 | 1606.3 | 49.79 | 56.02
315.65 K | 0.881 | 1240.63 | 373 | 1.4399 | 1600.5 | 49.54 | 50.22
318.15 K | 0.965 | 1238.86 | 374 | 1.43924 | 1594.8 | 49.41 | 45.19
320.65 K | 1.07 | 1237.1 | 376 | 1.43859 | 1589 | 49.21 | 40.86
323.15 K | 1.15 | 1235.33 | 377 | 1.43792 | 1583.3 | 49.03 | 36.99
325.65 K | 1.26 | 1233.58 | 378 | 1.43726 | 1577.6 | 48.82 | 33.84
328.15 K | 1.37 | 1231.82 | 380 | 1.43659 | 1572 | 48.7 | 30.72
330.65 K | 1.48 | 1230.07 | 381 | 1.43593 | 1566.3 | 48.46 | 28.09
333.15 K | 1.6 | 1228.32 | 383 | 1.43528 | 1560.7 | 48.3 | 25.81
335.65 K | 1.73 | 1226.57 | 384 | 1.43463 | 1555.1 | 48.1 | 23.78
338.15 K | 1.87 | 1224.83 | 385 | 1.43398 | 1549.5 | 47.86 | 21.97
